Measurements reported in patent US5686452A, “Indane derivative and processes for preparing the same” (Tanabe Seiyaku Co., Ltd., priority 1994, dated 1997).

tested on: rat glomerular nephritis; test: Action on rat glomerular nephritis (nephrotoxic serum-induced nephritis; urinary protein excretion); type: in vivo; details: male WKY rats, NTS-induced nephritis; 30 mg/kg/10 ml orally twice a day for 8 days; 24 h urine collected after 7 days
Experimental: (Action on rat glomerular nephritis)
Rabbits were immunized several times with a renal glomerular basement membrane fraction obtained from WKY strain rats and an adjuvant. Thereafter, blood was collected to obtain a nephrotoxic serum (NTS). This NTS was diluted by 50 times with physiological saline, and the diluted NTS was once administered intravenously to male WKY rats of 8 weeks old in a dose of 2.5 ml per 1 kg of body weight to induce nephritis. In normal group of rats, the same volume of physiological saline was intravenously administered.
In the experiment, one group consisted of 6 rats, and each compound to be tested was suspended in water with small amount of Tween 80 (trade name, produced by Nacalai Tesque Co.), and was orally administered to the test group of rats at a dose of 30 mg/kg/10 ml twice a day for 8 days. In normal group and control group of rats, the same volume of water was orally administered instead of the test compound. After 7 days, the rats were placed in metabolic cages and urine was collected for 24 hours. Concentrations of protein in urine were measured by the sulfosalicylic acid method to determine amounts of protein excreted in the urine (mg/day). The inhibition rate of excretion of protein were calculated by the following equation. [formula]

Row | SMILES | Inhibition rate (of excretion of protein in urine) [%]
1 | C=CS(=O)(=O)NCC1Cc2ccc(-c3ccc(=O)[nH]n3)cc2C1 (stereo not drawn) [Example 4] | 61.5
2 | C=CS(=O)(=O)NCCC1Cc2ccc(-c3ccc(=O)[nH]n3)cc2C1 (stereo not drawn) [Example 8] | 71.6
3 | C=CS(=O)(=O)NCCCCC1Cc2ccc(-c3ccc(=O)[nH]n3)cc2C1 (stereo not drawn) [Example 12] | 67.5
4 | C=CS(=O)(=O)NCCCC1Cc2ccc(-c3ccc(=O)[nH]n3)cc2C1 (stereo not drawn) [Example 19] | 91.8
5 | CCS(=O)(=O)NCCC1Cc2ccc(-c3ccc(=O)[nH]n3)cc2C1 (stereo not drawn) [Example 6] | 65.1
6 | CCCS(=O)(=O)NCCC1Cc2ccc(-c3ccc(=O)[nH]n3)cc2C1 (stereo not drawn) [Example 7] | 77.2
